Measurements published in patent publication US12227501B2, “3-amino-2-[2-(acylamino)pyridin-4-yl]-1,5,6,7-tetrahydro-4h-pyrrolo[3,2-c]pyridin-4-one as CSNK1 inhibitors” (Bayer Aktiengesellschaft, priority 2019, dated 2025).
Structures can show the parent of a compound that is named as a salt. Where two headings read alike, the source gives them in different places.

Columns and labels:
Type in all cases: biochemical
human CSNK1A1 [1] = target: T1, human CSNK1A1 (Homo sapiens (Human), UniProt P48729); assay: CSNK1A1 Assay 2 (ADP-Glo, 1 μM ATP); conditions: substrate biotin-Ahx-KRRRAL-pS-VASLPGL, read-out: CSNK1A1 Assay 2 IC50 [mol/l] (median)
T1 sequence (P48729 whole entry, the tested form may be a part): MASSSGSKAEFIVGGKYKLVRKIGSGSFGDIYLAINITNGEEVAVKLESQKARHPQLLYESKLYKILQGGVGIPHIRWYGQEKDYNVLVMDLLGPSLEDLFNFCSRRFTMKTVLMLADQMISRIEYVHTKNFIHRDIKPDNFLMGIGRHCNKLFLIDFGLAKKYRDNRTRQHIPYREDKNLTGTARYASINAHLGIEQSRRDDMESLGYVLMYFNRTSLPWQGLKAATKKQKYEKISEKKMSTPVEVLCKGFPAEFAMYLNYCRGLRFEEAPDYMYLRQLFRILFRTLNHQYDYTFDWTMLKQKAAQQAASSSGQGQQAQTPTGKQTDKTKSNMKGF
Outline: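 Full-length human CSNK1A1 as an N-terminal GST fusion (baculovirus/insect cells) with biotinylated peptide substrate biotin-Ahx-KRRRAL-pS-VASLPGL and 1 μM ATP, in HEPES pH 7.5 buffer. Compounds were pre-incubated with enzyme (~0.0375 ng/μL) for 15 min at 22 °C. Generated ADP was read by ADP-Glo luminescence as the activity measure.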

[2] = target: wild-type Epidermal Growth Factor Receptor (EGFR) (Homo sapiens (Human), UniProt P00533); assay: WT-EGFR Kinase Assay (TR-FRET, 2 mM ATP)
wild-type Epidermal Growth Factor Receptor (EGFR), sequence (P00533 669-1210): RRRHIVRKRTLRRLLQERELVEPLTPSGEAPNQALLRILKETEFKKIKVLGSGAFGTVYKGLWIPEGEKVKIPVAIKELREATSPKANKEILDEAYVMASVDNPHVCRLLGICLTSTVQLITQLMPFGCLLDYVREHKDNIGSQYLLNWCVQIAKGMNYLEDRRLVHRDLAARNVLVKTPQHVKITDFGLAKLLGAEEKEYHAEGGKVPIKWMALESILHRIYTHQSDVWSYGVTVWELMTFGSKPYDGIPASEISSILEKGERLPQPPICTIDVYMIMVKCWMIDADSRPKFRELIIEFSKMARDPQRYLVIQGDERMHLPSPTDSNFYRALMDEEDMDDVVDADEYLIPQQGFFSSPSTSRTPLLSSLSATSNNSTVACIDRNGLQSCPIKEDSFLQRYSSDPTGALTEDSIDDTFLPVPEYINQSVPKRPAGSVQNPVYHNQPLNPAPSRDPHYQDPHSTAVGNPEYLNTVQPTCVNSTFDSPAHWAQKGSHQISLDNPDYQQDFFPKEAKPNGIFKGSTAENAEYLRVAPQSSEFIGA

human CSNK1A1 [3] = target: T1, human CSNK1A1; assay: CSNK1A1 High ATP Assay (ADP-Glo, 1 mM ATP); conditions: read-out: CSNK1A1 high ATP assay IC50 [mol/l] (median)
Outline: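 Kinase activity taken as ADP generated, quantified by ADP-Glo luminescence after 1 h ATP depletion and 1 h detection at 22 °C. Enzyme is GST–full-length human CSNK1A1 (insect cell-expressed), pre-bound to compound for 15 min, with phosphopeptide substrate and 1 mM ATP.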

human CSNK1D = human CSNK1D (Homo sapiens (Human), UniProt P48730); assay: CSNK1D Assay (ADP-Glo, 1 μM ATP); conditions: read-out: CSNK1D IC50 [mol/l] (median)
human CSNK1D, sequence (P48730 whole entry): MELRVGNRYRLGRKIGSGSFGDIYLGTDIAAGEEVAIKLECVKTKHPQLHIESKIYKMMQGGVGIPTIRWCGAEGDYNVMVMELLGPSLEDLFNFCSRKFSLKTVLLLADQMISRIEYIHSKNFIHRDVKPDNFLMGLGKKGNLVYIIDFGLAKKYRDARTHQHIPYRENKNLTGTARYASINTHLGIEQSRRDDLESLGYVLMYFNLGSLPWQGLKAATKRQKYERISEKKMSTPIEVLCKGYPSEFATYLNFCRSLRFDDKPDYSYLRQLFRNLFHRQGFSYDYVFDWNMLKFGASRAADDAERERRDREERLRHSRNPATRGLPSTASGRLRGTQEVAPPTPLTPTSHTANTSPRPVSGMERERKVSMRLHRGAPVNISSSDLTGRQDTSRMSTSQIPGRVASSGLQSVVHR
Outline: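 Activity is read as ADP produced, by ADP-Glo luminescence after 1 h steps at 22 °C. The reaction uses 1 μM ATP, a biotinylated peptide and insect-cell-expressed GST–CSNK1D (about 0.5 ng/μL) in pH 7.5 HEPES buffer, with 15 min compound–enzyme preincubation.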

[4] = EGFR Wildtyp- 2 mM ATP IC50 [mol/l] (median)
[5] = read-out: EGFR Wildtyp- 2 mM ATP IC50 [mol/l] (median)

Row | Compound | IC50 (human CSNK1A1 [1]) | IC50 [2, 4] | IC50 (human CSNK1A1 [3]) | IC50 (human CSNK1D) | IC50 [2, 5]
1 | CC1Cc2[nH]c(-c3ccnc(NC(=O)Cc4ccc(F)cc4)c3)c(Nc3ccccc3F)c2C(=O)N1C (single isomer, unassigned; (+)) [Example 101, (+)-N-{4-[3-(2-fluoroanilino)-5,6-dimethyl-4-oxo-4,5,6,7-tetrahydro-1H-pyrrolo[3,2-c]pyridin-2-yl]pyridin-2-yl}-2-(4-fluorophenyl)acetamide] | 3.74 nM | > 20000 nM | 258 nM | 7.42 nM | 
2 | CN1CCc2[nH]c(-c3ccnc(NC(=O)C(CO)c4ccc(F)cc4)c3)c(Nc3ccccc3)c2C1=O (single isomer, unassigned) [Example 18, N-[4-(3-anilino-5-methyl-4-oxo-4,5,6,7-tetrahydro-1H-pyrrolo[3,2-c]pyridin-2-yl)pyridin-2-yl]-2-(4-fluorophenyl)-3-hydroxypropanamide] | 20.4 nM | 14900 nM | 1790 nM | 44.7 nM | 
3 | O=C1NC2(CC2)Cc2[nH]c(-c3ccnc(NC(=O)C(CC(F)F)c4ccc(F)cc4)c3)c(Nc3ccccc3)c21 (single isomer, unassigned; enantiomer 1) [Example 148, N-[4-(3′-anilino-4′-oxo-1′,4′,5′,7′-tetrahydrospiro[cyclopropane-1,6′-pyrrolo[3,2-c]pyridin]-2′-yl)pyridin-2-yl]-4,4-difluoro-2-(4-fluorophenyl)butanamide (Enantiomer 1)] | 8.82 nM | 3400 nM | 12.8 nM | 8.31 nM | 
4 | CC1(C)Cc2[nH]c(-c3ccnc(NC(=O)C(CNC(=O)OC(C)(C)C)c4ccc(F)cc4)c3)c(Nc3ccccc3)c2C(=O)N1 (racemic) [Example 138, tert-butyl [3-{[4-(3-anilino-6,6-dimethyl-4-oxo-4,5,6,7-tetrahydro-1H-pyrrolo[3,2-c]pyridin-2-yl)pyridin-2-yl]amino}-2-(4-fluorophenyl)-3-oxopropyl]carbamate (Racemate)] | 16.6 nM | 11100 nM | 430 nM | 22.4 nM | 
5 | CCC(C(=O)Nc1cc(-c2[nH]c3c(c2Nc2ccccc2)C(=O)N(C)CC3)ccn1)c1ccc(F)cc1 (single isomer, unassigned; (+)) [Example 77, (+)-N-[4-(3-anilino-5-methyl-4-oxo-4,5,6,7-tetrahydro-1H-pyrrolo[3,2-c]pyridin-2-yl)pyridin-2-yl]-2-(4-fluorophenyl)butanamide] | 2.12 nM |  | 86.7 nM | 4.43 nM | > 20000 nM
6 | CC1(C)Cc2[nH]c(-c3ccnc(NC(=O)C(CC(F)F)c4ccc(F)cc4)c3)c(Nc3cccc(F)n3)c2C(=O)N1 (single isomer, unassigned; enantiomer 2) [Example 130, 4,4-difluoro-2-(4-fluorophenyl)-N-(4-{3-[(6-fluoropyridin-2-yl)amino]-6,6-dimethyl-4-oxo-4,5,6,7-tetrahydro-1H-pyrrolo[3,2-c]pyridin-2-yl}pyridin-2-yl)butanamide (Enantiomer 2)] | 26.7 nM |  | 1340 nM | 71.6 nM | > 20000 nM
7 | CC1(C)Cc2[nH]c(-c3ccnc(NC(=O)C(CC(F)F)c4ccc(F)cc4)c3)c(Nc3cccc(F)n3)c2C(=O)N1 (racemic) [Example 128, 4,4-difluoro-2-(4-fluorophenyl)-N-(4-{3-[(6-fluoropyridin-2-yl)amino]-6,6-dimethyl-4-oxo-4,5,6,7-tetrahydro-1H-pyrrolo[3,2-c]pyridin-2-yl}pyridin-2-yl)butanamide (Racemate)] | 7.16 nM | > 20000 nM | 31.4 nM | 11.4 nM | 
8 | CC1Cc2[nH]c(-c3ccnc(NC(=O)C(CC(F)F)c4ccc(F)cc4)c3)c(Nc3ccccc3F)c2C(=O)N1C (single isomer, unassigned; (-)) [Example 106, (−)-(2RS)-4,4-difluoro-N-{4-[(6R*)-3-(2-fluoroanilino)-5,6-dimethyl-4-oxo-4,5,6,7-tetrahydro-1H-pyrrolo[3,2-c]pyridin-2-yl]pyridin-2-yl}-2-(4-fluorophenyl)butanamide] | 17.8 nM |  | 56.2 nM | 22.3 nM | > 20000 nM
9 | CN1CCc2[nH]c(-c3ccnc(NC(=O)Cc4ccc(C(=O)N5CCNCC5)cc4)c3)c(Nc3ccccc3)c2C1=O [Example 153, N-[4-(3-anilino-5-methyl-4-oxo-4,5,6,7-tetrahydro-1H-pyrrolo[3,2-c]pyridin-2-yl)pyridin-2-yl]-2-[4-(piperazine-1-carbonyl)phenyl]acetamide] | 1.96 nM |  | 73.9 nM | 9.28 nM | 287 nM
10 | O=C(Cc1ccc(F)cc1)Nc1cc(-c2[nH]c3c(c2Nc2ccccc2)C(=O)NC2(CCC2)C3)ccn1 [Example 57, N-[4-(3′-anilino-4′-oxo-1′,4′,5′,7′-tetrahydrospiro[cyclobutane-1,6′-pyrrolo[3,2-c]pyridin]-2′-yl)pyridin-2-yl]-2-(4-fluorophenyl)acetamide] | 2.01 nM |  | 10.3 nM | 3.1 nM | 870 nM
11 | CN1CCc2[nH]c(-c3ccnc(NC(=O)Cc4ccc(F)cc4)c3)c(Nc3cccc(F)c3F)c2C1=O [Example 154, N-{4-[3-(2,3-difluoroanilino)-5-methyl-4-oxo-4,5,6,7-tetrahydro-1H-pyrrolo[3,2-c]pyridin-2-yl]pyridin-2-yl}-2-(4-fluorophenyl)acetamide formamide salt] | 3.33 nM |  | 119 nM | 4.45 nM | > 20000 nM
12 | CC1Cc2[nH]c(-c3ccnc(NC(=O)Cc4ccncc4)c3)c(Nc3ccccc3)c2C(=O)N1C (racemic) [Example 97, N-{4-[3-anilino-5,6-dimethyl-4-oxo-4,5,6,7-tetrahydro-1H-pyrrolo[3,2-c]pyridin-2-yl]pyridin-2-yl}-2-(pyridin-4-yl)acetamide] | 4.4 nM | 529 nM | 47 nM | 5.73 nM | 
13 | Cc1ccc(CC(=O)Nc2cc(-c3[nH]c4c(c3Nc3ccccc3)C(=O)N(C)CC4)ccn2)cc1 [Example 68, N-[4-(3-anilino-5-methyl-4-oxo-4,5,6,7-tetrahydro-1H-pyrrolo[3,2-c]pyridin-2-yl)pyridin-2-yl]-2-(4-methylphenyl)acetamide] | 3.2 nM |  | 74.2 nM | 3.63 nM | 2100 nM
14 | CC1Cc2[nH]c(-c3ccnc(NC(=O)C(CC(F)F)c4ccc(F)cc4)c3)c(Nc3ccccc3F)c2C(=O)N1C (single isomer, unassigned; (-)) [Example 107, (−)-4,4-difluoro-N-{4-[3-(2-fluoroanilino)-5,6-dimethyl-4-oxo-4,5,6,7-tetrahydro-1H-pyrrolo[3,2-c]pyridin-2-yl]pyridin-2-yl}-2-(4-fluorophenyl)butanamide] | 45.7 nM |  | 3160 nM | 59.2 nM | > 20000 nM
15 | CN1C(=O)c2c([nH]c(-c3ccnc(NC(=O)C(CC(F)F)c4ccc(F)cc4)c3)c2Nc2ccccc2)CC12CCC2 (single isomer, unassigned; enantiomer 2) [Example 162, (+)-N-[4-(3′-anilino-5′-methyl-4′-oxo-1′,4′,5′,7′-tetrahydrospiro[cyclobutane-1,6′-pyrrolo[3,2-c]pyridin]-2′-yl)pyridin-2-yl]-4,4-difluoro-2-(4-fluorophenyl)butanamide (Enantiomer 2)] | 60.2 nM |  | 61.4 nM | 52.9 nM | > 20000 nM
16 | CN1C(=O)c2c([nH]c(-c3ccnc(NC(=O)Cc4ccc(F)cc4)c3)c2Nc2ccccc2)CC1(C)C [Example 44, N-[4-(3-anilino-5,6,6-trimethyl-4-oxo-4,5,6,7-tetrahydro-1H-pyrrolo[3,2-c]pyridin-2-yl)pyridin-2-yl]-2-(4-fluorophenyl)acetamide] | 4.82 nM |  | 671 nM | 10.7 nM | 4140 nM
17 | CCN1CCc2[nH]c(-c3ccnc(NC(=O)C(C)c4ccc(F)cc4)c3)c(Nc3ccccc3)c2C1=O (single isomer, unassigned) [Example 26, N-[4-(3-anilino-5-ethyl-4-oxo-4,5,6,7-tetrahydro-1H-pyrrolo[3,2-c]pyridin-2-yl)pyridin-2-yl]-2-(4-fluorophenyl)propanamide] | 4.05 nM |  | 288 nM | 23.1 nM | > 20000 nM
18 | O=C1NC2(CC2)Cc2[nH]c(-c3ccnc(NC(=O)C(CC(F)F)c4ccc(F)cc4)c3)c(Nc3ccccc3)c21 (racemic) [Example 147, N-[4-(3′-anilino-4′-oxo-1′,4′,5′,7′-tetrahydrospiro[cyclopropane-1,6′-pyrrolo[3,2-c]pyridin]-2′-yl)pyridin-2-yl]-4,4-difluoro-2-(4-fluorophenyl)butanamide (Racemate)] | 6.2 nM | 268 nM | 19.2 nM | 11.6 nM | 
